Test results taken from the NIST ThermoML archive (doi:10.1021/je400835u).

Experiment: xn = mol fraction of the nth substance listed
Conditions: 100 kPa, Liquid; for viscosity: Falling or rolling sphere viscometry; for mass density: Vibrating tube method

CCCCC1CCCCC1 [butylcyclohexane] + CCCCCCCCCC
Conditions	mass density, 293.15 K [kg/m3]	mass density, 298.15 K [kg/m3]	mass density, 303.15 K [kg/m3]	mass density, 308.15 K [kg/m3]	mass density, 313.15 K [kg/m3]	viscosity, 293.15 K [mPa·s]	viscosity, 298.15 K [mPa·s]	viscosity, 303.15 K [mPa·s]	viscosity, 308.15 K [mPa·s]	viscosity, 313.15 K [mPa·s]
x1 = 0.0508	733.71	729.95	726.17	722.37	718.56	0.944	0.879	0.82	0.767	0.72
x1 = 0.1001	736.83	733.07	729.29	725.5	721.69	0.956	0.89	0.831	0.778	0.73
x1 = 0.1992	743.19	739.43	735.66	731.87	728.07	0.984	0.914	0.853	0.798	0.748
x1 = 0.2994	749.74	745.99	742.22	738.44	734.64	1.014	0.94	0.877	0.819	0.768
x1 = 0.3996	756.42	752.67	748.91	745.13	741.34	1.047	0.969	0.903	0.842	0.789
x1 = 0.5002	763.27	759.53	755.76	751.99	748.2	1.084	1.003	0.932	0.869	0.813
x1 = 0.5955	769.88	766.14	762.38	758.61	754.83	1.122	1.037	0.963	0.897	0.84
x1 = 0.6988	777.19	773.45	769.7	765.93	762.15	1.166	1.078	1.001	0.931	0.871
x1 = 0.8012	784.6	780.86	777.11	773.34	769.57	1.21	1.121	1.039	0.966	0.902
x1 = 0.8998	791.88	788.15	784.4	780.63	776.86	1.253	1.159	1.074	0.998	0.932
x1 = 0.9497	795.63	791.89	788.14	784.37	780.61	1.275	1.178	1.091	1.013	0.946
x1 = 1	799.44	795.7	791.95	788.19	784.41	1.296	1.196	1.107	1.027	0.958

CCCCC1CCCCC1 [butylcyclohexane] + CCCCCCCCCCCC
Conditions	mass density, 293.15 K [kg/m3]	mass density, 298.15 K [kg/m3]	mass density, 303.15 K [kg/m3]	mass density, 308.15 K [kg/m3]	mass density, 313.15 K [kg/m3]	viscosity, 293.15 K [mPa·s]	viscosity, 298.15 K [mPa·s]	viscosity, 303.15 K [mPa·s]	viscosity, 308.15 K [mPa·s]	viscosity, 313.15 K [mPa·s]
x1 = 0.0511	750.97	747.36	743.73	740.1	736.45	1.492	1.369	1.258	1.157	1.07
x1 = 0.0989	752.88	749.26	745.63	741.99	738.34	1.486	1.363	1.251	1.152	1.067
x1 = 0.2004	757.06	753.44	749.8	746.15	742.5	1.467	1.346	1.238	1.14	1.056
x1 = 0.3002	761.38	757.75	754.1	750.45	746.78	1.45	1.331	1.224	1.128	1.047
x1 = 0.4012	765.97	762.34	758.68	755.02	751.35	1.431	1.314	1.21	1.117	1.036
x1 = 0.5005	770.74	767.1	763.43	759.76	756.07	1.415	1.298	1.196	1.106	1.026
x1 = 0.6006	775.82	772.16	768.48	764.8	761.1	1.393	1.279	1.18	1.091	1.013
x1 = 0.7008	781.21	777.53	773.83	770.13	766.43	1.373	1.262	1.165	1.078	1.002
x1 = 0.7998	786.85	783.16	779.45	775.73	771.99	1.351	1.244	1.15	1.064	0.99
x1 = 0.8996	792.92	789.21	785.47	781.73	777.98	1.331	1.226	1.134	1.049	0.978
x1 = 0.9494	796.1	792.38	788.64	784.9	781.13	1.32	1.216	1.126	1.04	0.969
x1 = 1	799.44	795.7	791.95	788.19	784.41	1.296	1.196	1.107	1.027	0.958
